In ChEMBL document CHEMBL3774326, “New derivative of 2-(2,4-dihydroxyphenyl)thieno-1,3-thiazin-4-one (BChTT) elicits antiproliferative effect via p38-mediated cell cycle arrest in cancer cells” (Bioorg Med Chem, 2016):
Calls of active or inactive are those of the source.

Key:
[1] = tested on: HT-29; assay: Antiproliferative activity against human HT-29 cells after 96 hrs by MTT assay; type: functional, cell-based
[2] = tested on: HT-29; assay: Effect on CREB expression in human HT-29 cells at 10 to 50 uM after 0.5 to 24 hrs by Western blot analysis; type: functional, cell-based
[3] = Cytotoxicity against HSF assessed as cell viability at 10 to 100 uM after 24 hrs by LDH assay; details: human
[4] = tested on: HT-29; assay: Inhibition of DNA synthesis in human HT-29 cells assessed as BrdU incorporation after 48 hrs by ELISA; type: functional, cell-based
[5] = tested on: C6; assay: Induction of cell cycle arrest in rat C6 cells assessed as decrease in cell level at S phase after 24 to 48 hrs by propidium iodide staining-based flow cytometric analysis; type: functional
[6] = tested on: C6; assay: Induction of cell cycle arrest in rat C6 cells assessed as accumulation at G0/G1 phase after 24 to 48 hrs by propidium iodide staining-based flow cytometric analysis; type: functional
[7] = tested on: A549; assay: Induction of cell cycle arrest in human A549 cells assessed as decrease in cell level at G2M phase after 24 to 48 hrs by propidium iodide staining-based flow cytometric analysis; type: functional
[8] = Cytotoxicity against rat FaO cells assessed as cell viability at 10 to 100 uM after 24 hrs by LDH assay; type: cell-based
[9] = tested on: C6; assay: Inhibition of DNA synthesis in rat C6 cells assessed as BrdU incorporation after 48 hrs by ELISA; type: functional, cell-based
[10] = tested on: HT-29; assay: Effect on c-myc expression in human HT-29 cells at 10 to 50 uM after 0.5 to 24 hrs by Western blot analysis; type: functional, cell-based
[11] = molecular target: T1, MAP kinase p38 (Homo sapiens) (UniProt O15264+Q15759+Q16539+P53778); assay: Increase in phosphorylated p38 level in human A549 cells after 0.5 hrs by Western blot analysis; type: cell-based
[12] = tested on: C6; assay: Antiproliferative activity against rat C6 cells at 25 to 50 uM after 48 hrs by MTT assay in presence of p38 siRNA; type: functional, cell-based
[13] = Cytotoxicity against rat FaO cells assessed as cell viability at 100 uM after 24 hrs by LDH assay; type: cell-based
[14] = tested on: C6; assay: Effect on c-myc expression in rat C6 cells at 10 to 50 uM after 0.5 to 24 hrs by Western blot analysis; type: functional, cell-based
[15] = tested on: A549; assay: Inhibition of DNA synthesis in human A549 cells assessed as BrdU incorporation after 48 hrs by ELISA; type: functional, cell-based
[16] = tested on: C6; assay: Effect on CREB expression in rat C6 cells at 10 to 50 uM after 0.5 to 24 hrs by Western blot analysis; type: functional, cell-based
[17] = tested on: A549; assay: Effect on CREB expression in human A549 cells at 10 to 50 uM after 0.5 to 24 hrs by Western blot analysis; type: functional, cell-based
[18] = tested on: HT-29; assay: Induction of cell cycle arrest in human HT-29 cells assessed as decrease in cell level at G2M phase after 24 to 48 hrs by propidium iodide staining-based flow cytometric analysis; type: functional
[19] = tested on: C6; assay: Induction of cell cycle arrest in rat C6 cells assessed as decrease in cell level at G2M phase after 24 to 48 hrs by propidium iodide staining-based flow cytometric analysis; type: functional
[20] = tested on: C6; assay: Antiproliferative activity against rat C6 cells after 96 hrs by MTT assay; type: functional, cell-based
[21] = tested on: HT-29; assay: Induction of cell cycle arrest in human HT-29 cells assessed as accumulation at G0/G1 phase at 50 uM after 24 to 48 hrs by propidium iodide staining-based flow cytometric analysis; type: functional
[22] = tested on: A549; assay: Decrease in cyclin D1 expression in human A549 cells at 50 uM after 3 to 24 hrs by Western blot analysis; type: functional, cell-based
[23] = tested on: C6; assay: Increase in phosphorylated p38 level in rat C6 cells at 10 to 50 uM after 24 hrs by Western blot analysis; type: cell-based
[24] = tested on: A549; assay: Effect on c-myc expression in human A549 cells at 10 to 50 uM after 0.5 to 24 hrs by Western blot analysis; type: functional, cell-based
[25] = tested on: A549; assay: Antiproliferative activity against human A549 cells after 96 hrs by MTT assay; type: functional, cell-based
[26] = tested on: C6; assay: Decrease in cyclin D1 expression in rat C6 cells at 50 uM after 0.5 to 24 hrs by Western blot analysis; type: functional, cell-based
[27] = tested on: HT-29; assay: Decrease in cyclin D1 expression in human HT-29 cells at 50 uM after 3 to 24 hrs by Western blot analysis; type: functional, cell-based
[28] = tested on: A549; assay: Induction of cell cycle arrest in human A549 cells assessed as decrease in cell level at S phase after 24 to 48 hrs by propidium iodide staining-based flow cytometric analysis; type: functional
[29] = molecular target: T2, Mitogen-activated protein kinase; ERK1/ERK2 (Homo sapiens) (UniProt P27361+P28482); assay: Effect on ERK1/2 phosphorylation in human HT-29 cells at 10 to 50 uM after 0.5 to 24 hrs by Western blot analysis; type: cell-based
T2 sequence (P27361 whole entry, looked up): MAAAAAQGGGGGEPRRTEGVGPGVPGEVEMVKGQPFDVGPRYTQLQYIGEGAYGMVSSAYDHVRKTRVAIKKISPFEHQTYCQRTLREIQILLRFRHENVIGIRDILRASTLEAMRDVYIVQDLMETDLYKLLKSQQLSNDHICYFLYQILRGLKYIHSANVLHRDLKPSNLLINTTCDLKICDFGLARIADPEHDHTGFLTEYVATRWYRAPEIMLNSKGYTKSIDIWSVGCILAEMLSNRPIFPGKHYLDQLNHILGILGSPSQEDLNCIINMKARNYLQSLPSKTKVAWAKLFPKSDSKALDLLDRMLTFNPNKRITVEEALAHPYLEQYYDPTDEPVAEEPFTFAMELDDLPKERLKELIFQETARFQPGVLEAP
T2 sequence (P28482 whole entry, looked up): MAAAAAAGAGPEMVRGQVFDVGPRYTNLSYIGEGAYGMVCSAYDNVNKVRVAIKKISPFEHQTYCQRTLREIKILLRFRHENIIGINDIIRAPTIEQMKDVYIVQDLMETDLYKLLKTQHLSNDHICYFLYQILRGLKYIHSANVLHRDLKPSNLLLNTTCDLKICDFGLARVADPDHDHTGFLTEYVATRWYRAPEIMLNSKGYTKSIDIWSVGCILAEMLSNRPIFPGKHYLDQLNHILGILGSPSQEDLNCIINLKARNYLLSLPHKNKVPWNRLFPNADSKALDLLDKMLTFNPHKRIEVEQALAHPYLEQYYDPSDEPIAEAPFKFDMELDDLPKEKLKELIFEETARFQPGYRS

[30] = molecular target: T1, MAP kinase p38 (Homo sapiens); assay: Increase in phosphorylated p38 level in human A549 cells at 10 to 50 uM after 24 hrs by Western blot analysis; type: cell-based
[31] = molecular target: T2, Mitogen-activated protein kinase; ERK1/ERK2 (Homo sapiens); assay: Effect on ERK1/2 phosphorylation in human A549 cells at 10 to 50 uM after 0.5 to 24 hrs by Western blot analysis; type: cell-based
[32] = tested on: C6; assay: Increase in phosphorylated p38 level in rat C6 cells after 0.5 to 3 hrs by Western blot analysis; type: cell-based
[33] = tested on: A549; assay: Induction of cell cycle arrest in human A549 cells assessed as accumulation at G0/G1 phase after 24 to 48 hrs by propidium iodide staining-based flow cytometric analysis; type: functional
[34] = molecular target: T1, MAP kinase p38 (Homo sapiens); assay: Increase in phosphorylated p38 level in human HT-29 cells after 0.5 to 24 hrs by Western blot analysis; type: cell-based
[35] = Cytotoxicity against rat OLN93 cells assessed as cell viability at 10 to 100 uM after 24 hrs by LDH assay; type: cell-based
[36] = tested on: HT-29; assay: Induction of cell cycle arrest in human HT-29 cells assessed as decrease in cell level at S phase after 24 to 48 hrs by propidium iodide staining-based flow cytometric analysis; type: functional
[37] = molecular target: Mitogen-activated protein kinase 1 and 3 (ERK2 and ERK1) (Rattus norvegicus) (UniProt P63086+P21708); assay: Effect on ERK1/2 phosphorylation in rat C6 cells at 10 to 50 uM after 0.5 to 24 hrs by Western blot analysis; type: cell-based
Chain of Mitogen-activated protein kinase 1 and 3 (ERK2 and ERK1) (Rattus norvegicus) (P21708 whole entry, looked up): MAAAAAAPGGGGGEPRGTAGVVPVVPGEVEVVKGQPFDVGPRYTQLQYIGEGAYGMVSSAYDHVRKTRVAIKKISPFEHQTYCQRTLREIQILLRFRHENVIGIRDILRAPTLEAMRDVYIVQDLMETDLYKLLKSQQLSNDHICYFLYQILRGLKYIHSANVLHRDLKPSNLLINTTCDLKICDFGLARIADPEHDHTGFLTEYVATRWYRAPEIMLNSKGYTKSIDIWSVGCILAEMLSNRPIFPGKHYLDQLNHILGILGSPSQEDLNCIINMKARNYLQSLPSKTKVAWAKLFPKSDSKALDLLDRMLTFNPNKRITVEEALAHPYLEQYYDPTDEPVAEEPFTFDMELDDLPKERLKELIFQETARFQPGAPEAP
Chain of Mitogen-activated protein kinase 1 and 3 (ERK2 and ERK1) (Rattus norvegicus) (P63086 whole entry, looked up): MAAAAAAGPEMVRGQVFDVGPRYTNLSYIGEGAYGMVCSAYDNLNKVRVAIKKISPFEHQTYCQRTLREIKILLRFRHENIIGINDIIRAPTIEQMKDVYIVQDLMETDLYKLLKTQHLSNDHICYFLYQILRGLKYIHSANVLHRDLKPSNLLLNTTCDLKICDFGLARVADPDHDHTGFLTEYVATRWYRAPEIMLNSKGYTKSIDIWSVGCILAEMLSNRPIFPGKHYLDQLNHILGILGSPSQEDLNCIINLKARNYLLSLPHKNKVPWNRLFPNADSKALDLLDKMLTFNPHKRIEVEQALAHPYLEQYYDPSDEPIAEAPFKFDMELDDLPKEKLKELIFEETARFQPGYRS

CC(C)(C)c1cc2nc(-c3cc(Cl)c(O)cc3O)sc(=O)c2s1
Non-toxic: Activity [3] | Activity [8] | Activity [35]
inactive: Activity [2] | Activity [10] | Activity [12] | Activity [14] | Activity [16] | Activity [17] | Activity [23] | Activity [24] | Activity [29] | Activity [30] | Activity [31] | Activity [37]
38.6 µM: IC50 ([1]; HT-29, 96 h)
87.4 µM: IC50 ([20]; C6, 96 h)
active: Activity [1] Dose-dependent effect | inhibition [4] Dose-dependent effect | Activity [5] Dose-dependent effect | Activity [6] Dose-dependent effect | Activity [7] Dose-dependent effect | inhibition [9] Dose-dependent effect | Activity [11] Dose-dependent effect | inhibition [15] Dose-dependent effect | Activity [18] Dose-dependent effect | Activity [19] Dose-dependent effect | Activity [20] Dose-dependent effect | Activity [21] Dose-dependent effect | Activity [22] | Activity [25] Dose-dependent effect | Activity [26] | Activity [27] | Activity [28] Dose-dependent effect | Activity [32] Dose-dependent effect | Activity [33] Dose-dependent effect | Activity [34] Dose-dependent effect | Activity [36] Dose-dependent effect
Toxic: Activity [13]
32.9 µM: IC50 ([25]; A549, 96 h)
